Measured values reported in patent US20200163984A1, “USE OF ISOVALERYL SPIRAMYCIN I, II AND/OR III IN MANUFACTURING MEDICAMENT FOR TREATING AND/OR PREVENTING TUMOR, AND MEDICAMENT” (SHENYANG FUYANG PHARMACEUTICAL TECHNOLOGY CO., LTD., priority 2017, published 2020).

Tests used:
[1] = tested on: transplanted tumor of human renal cell adenocarcinoma cell 769-P; test: 769-P transplanted tumor in nude mice; conditions: for Tumor Volume (mm3) (d 1): d1
Procedure: (§1) Then cell concentration was adjusted to 1×10^7/ml with matrigel, then each nude mouse was inoculated subcutaneously with 0.2 ml of cells at its right armpit and recorded as the first day of inoculation. When the tumor grows to be greater than or equal to 100 mm^3, the mice were randomly divided into 11 groups with 6 mice in each group: a model group, a cyclophosphamide group, isovaleryl spiramycin I groups with doses of 25, 50 and 100 mg/kg, isovaleryl spiramycin II groups with doses of 25, 50 and 100 mg/kg, and isovaleryl spiramycin III groups with doses of 25, 50 and 100 mg/kg. Each group was continuously administered intragastrically for 30 days with a dose of 20 ml/kg. The mice were sacrificed the next day after drug withdrawal and the indicators were tested. The long diameter and short diameter of the tumor, and the weight of each mouse were recorded every 3 days from drug administration to nude mouse sacrifice.
(§2) The body weight of the nude mice and the long diameter (a) and short diameter (b) of the transplanted tumor were measured every 3 days, and the tumor volume (v), relative tumor volume (RTV) and relative tumor proliferation rate (T/C) are calculated respectively according to the following formulas, wherein V=a×b^2/2; RTV=V/V0 (V0 is the tumor volume before administration, V is the tumor volume before sacrifice), and T/C (%)=treatment group RTV/model control group RTV×100%.
(§3) Each mouse was weighed and sacrificed. After the tumor was completely stripped off from the body of the mouse, the non-tumor tissues such as blood stains and fat were removed to weigh the tumor and calculate the tumor growth inhibition rate. The average tumor weight of each group of mice is used as an indicator of efficacy. Tumor growth inhibition rate (%)=(1−the average tumor weight of the treatment group/the average tumor weight of the model group)×100%.

[2] = Spleen index of A549 lung cancer tumor-bearing mice; conditions: n = 6
[3] = tested on: transplanted tumor of human renal clear cell adenocarcinoma cell 786-O; test: 786-O transplanted tumor in nude mice; conditions: for Tumor Volume (mm3) (d 1): d1
Procedure: as §1, with “786-O cells in a logarithmic growth phase were taken and subjected to a trypan blue exclusion experiment showing that the cell viability was more than 95%, then the cells were subjected to trypsinization, centrifugation, and supernatant removal. Then cell” for “Then cell”, “and the body weight of” for “and the weight of”
as §2, §3

[4] = tested on: transplanted tumor of human pancreatic cancer cell PANC-1; test: PANC-1 transplanted tumor in nude mice; conditions: for Tumor Volume (mm3) (d 1): d1
Procedure: as §1, with “and the body weight of” for “and the weight of”
as §2, §3

[5] = 769-P, high dose (100 mg/kg in method) i.g. 30 days
[6] = 769-P, low dose (25 mg/kg in method) i.g. 30 days
[7] = 769-P, medium dose (50 mg/kg in method) i.g. 30 days
[8] = 786-O, high dose (100 mg/kg in method) i.g. 30 days
[9] = 786-O, low dose (25 mg/kg in method) i.g. 30 days
[10] = 786-O, medium dose (50 mg/kg in method) i.g. 30 days
[11] = PANC-1, 12.5 mg/kg (low dose) i.g. 30 days
[12] = PANC-1, 25 mg/kg (medium dose) i.g. 30 days
[13] = PANC-1, 50 mg/kg (high dose) i.g. 30 days

COC1C(OC(C)=O)CC(=O)OC(C)CC=CC=CC(OC2CCC(N(C)C)C(C)O2)C(C)CC(CC=O)C1OC1OC(C)C(OC2CC(C)(O)C(OC(=O)CC(C)C)C(C)O2)C(N(C)C)C1O (stereo not drawn) [Isovaleryl spiramycin II, isovaleryl spiramycin II]
Inhibition Rate (%) ([1]; 769-P nude mice, 25 mg/kg): 38.29%
Relative Tumor Proliferation Rate (T/C) ([1]; 769-P nude mice, 25 mg/kg): 68.22%
Relative Tumor Volume (RTV) ([1]; 769-P nude mice, 25 mg/kg): 12.59 ± 5.32
Tumor Weight ([1]; 769-P nude mice, 25 mg/kg): 1.27 ± 0.42 g
Tumor Volume (mm3) (d 1) ([1]; 769-P nude mice, 25 mg/kg): 162.50 ± 59.24 mm3
Tumor Volume (mm3) (d30) ([1]; 769-P nude mice, 25 mg/kg): 2045.85 ± 301.35 mm3
Inhibition Rate (%) ([1]; 769-P nude mice, 50 mg/kg): 47.61%
Relative Tumor Proliferation Rate (T/C) ([1]; 769-P nude mice, 50 mg/kg): 42.64%
Relative Tumor Volume (RTV) ([1]; 769-P nude mice, 50 mg/kg): 7.87 ± 2.29
Tumor Weight ([1]; 769-P nude mice, 50 mg/kg): 1.3 ± 0.23 g
Tumor Volume (mm3) (d 1) ([1]; 769-P nude mice, 50 mg/kg): 193.10 ± 35.41 mm3
Tumor Volume (mm3) (d30) ([1]; 769-P nude mice, 50 mg/kg): 1519.68 ± 239.38 mm3
Inhibition Rate (%) ([1]; 769-P nude mice, 100 mg/kg): 61.79%
Relative Tumor Proliferation Rate (T/C) ([1]; 769-P nude mice, 100 mg/kg): 34.76%
Relative Tumor Volume (RTV) ([1]; 769-P nude mice, 100 mg/kg): 6.42 ± 0.99
Tumor Weight ([1]; 769-P nude mice, 100 mg/kg): 0.79 ± 0.06 g
Tumor Volume (mm3) (d 1) ([1]; 769-P nude mice, 100 mg/kg): 109.14 ± 10.13 mm3
Tumor Volume (mm3) (d30) ([1]; 769-P nude mice, 100 mg/kg): 700.14 ± 100.08 mm3
Relative Tumor Proliferation Rate (T/C) [1, 5]: 34.76%
tumor growth inhibition rate [1, 5]: 61.79%
Relative Tumor Proliferation Rate (T/C) [1, 6]: 68.22%
tumor growth inhibition rate [1, 6]: 38.29%
tumor volume and relative tumor volume compared with the model group ([1]; 769-P, low, medium and high doses, P<0.05): significantly lower
Relative Tumor Proliferation Rate (T/C) [1, 7]: 42.64%
tumor growth inhibition rate [1, 7]: 47.61%
mouse weight compared with the model group ([1]; mouse, in vivo): no significant changes
Body Weight (g) (d1) ([1]; mouse, in vivo, 25 mg/kg): 22.17 ± 1.47 g
Body Weight (g) (d30) ([1]; mouse, in vivo, 25 mg/kg): 22.05 ± 0.71 g
Body Weight (g) (d1) ([1]; mouse, in vivo, 50 mg/kg): 22.07 ± 1.52 g
Body Weight (g) (d30) ([1]; mouse, in vivo, 50 mg/kg): 22.42 ± 0.54 g
Body Weight (g) (d1) ([1]; mouse, in vivo, 100 mg/kg): 21.96 ± 1.19 g
Body Weight (g) (d30) ([1]; mouse, in vivo, 100 mg/kg): 22.33 ± 0.41 g
Spleen Index (%) ([2]; dose 13 mg/kg): 0.35 ± 0.06%
Spleen Index (%) ([2]; dose 26 mg/kg): 0.32 ± 0.09%
Spleen Index (%) ([2]; dose 52 mg/kg): 0.37 ± 0.06%
Inhibition Rate (%) ([3]; 786-O nude mice, 25 mg/kg): 19.69%
Relative Tumor Proliferation Rate (T/C) ([3]; 786-O nude mice, 25 mg/kg): 76.92%
Relative Tumor Volume (RTV) ([3]; 786-O nude mice, 25 mg/kg): 14.62 ± 1.93
Tumor Weight ([3]; 786-O nude mice, 25 mg/kg): 1.72 ± 0.27 g
Tumor Volume (mm3) (d 1) ([3]; 786-O nude mice, 25 mg/kg): 96.82 ± 8.52 mm3
Tumor Volume (mm3) (d30) ([3]; 786-O nude mice, 25 mg/kg): 1415.80 ± 201.11 mm3
Inhibition Rate (%) ([3]; 786-O nude mice, 50 mg/kg): 41.09%
Relative Tumor Proliferation Rate (T/C) ([3]; 786-O nude mice, 50 mg/kg): 53.61%
Relative Tumor Volume (RTV) ([3]; 786-O nude mice, 50 mg/kg): 10.19 ± 2.62
Tumor Weight ([3]; 786-O nude mice, 50 mg/kg): 1.26 ± 0.31 g
Tumor Volume (mm3) (d 1) ([3]; 786-O nude mice, 50 mg/kg): 96.82 ± 8.52 mm3
Tumor Volume (mm3) (d30) ([3]; 786-O nude mice, 50 mg/kg): 982.68 ± 265.02 mm3
Inhibition Rate (%) ([3]; 786-O nude mice, 100 mg/kg): 60.00%
Relative Tumor Proliferation Rate (T/C) ([3]; 786-O nude mice, 100 mg/kg): 35.74%
Relative Tumor Volume (RTV) ([3]; 786-O nude mice, 100 mg/kg): 6.79 ± 1.65
Tumor Weight ([3]; 786-O nude mice, 100 mg/kg): 0.85 ± 0.16 g
Tumor Volume (mm3) (d 1) ([3]; 786-O nude mice, 100 mg/kg): 103.26 ± 9.71 mm3
Tumor Volume (mm3) (d30) ([3]; 786-O nude mice, 100 mg/kg): 701.57 ± 127.91 mm3
Relative Tumor Proliferation Rate (T/C) [3, 8]: 35.74%
tumor growth inhibition rate [3, 8]: 60.00%
Relative Tumor Proliferation Rate (T/C) [3, 9]: 76.92%
tumor growth inhibition rate [3, 9]: 19.69%
tumor volume and relative tumor volume compared with the model group ([3]; 786-O, low, medium and high doses, P<0.05): significantly lower
Relative Tumor Proliferation Rate (T/C) [3, 10]: 53.61%
tumor growth inhibition rate [3, 10]: 41.09%
mouse weight compared with the model group ([3]; mouse, in vivo): no significant changes
Body Weight (g) (d1) ([3]; mouse, in vivo, 25 mg/kg): 22.05 ± 0.71 g
Body Weight (g) (d30) ([3]; mouse, in vivo, 25 mg/kg): 23.33 ± 0.54 g
Body Weight (g) (d1) ([3]; mouse, in vivo, 50 mg/kg): 22.42 ± 0.54 g
Body Weight (g) (d30) ([3]; mouse, in vivo, 50 mg/kg): 23.42 ± 0.50 g
Body Weight (g) (d1) ([3]; mouse, in vivo, 100 mg/kg): 22.33 ± 0.41 g
Body Weight (g) (d30) ([3]; mouse, in vivo, 100 mg/kg): 23.45 ± 0.91 g
Inhibition Rate (tumor growth inhibition rate) [4, 11]: 20.55%
Tumor Weight [4, 11]: 2.16 ± 0.51 g
Inhibition Rate (tumor growth inhibition rate) [4, 12]: 41.72%
Tumor Weight [4, 12]: 1.58 ± 0.51 g
Inhibition Rate (tumor growth inhibition rate) [4, 13]: 56.81%
Tumor Weight [4, 13]: 1.17 ± 0.47 g
Relative Tumor Proliferation Rate (T/C) ([4]; PANC-1, high dose i.g. 30 days): 44.44%
Relative Tumor Proliferation Rate (T/C) ([4]; PANC-1, low dose i.g. 30 days): 79.23%
tumor volume and relative tumor volume compared with the model group ([4]; PANC-1, low, medium and high doses, P<0.05): significantly lower
Relative Tumor Proliferation Rate (T/C) ([4]; PANC-1, medium dose i.g. 30 days): 60.58%
Relative Tumor Proliferation Rate (T/C) ([4]; PANC-1 nude mice, 12.5 mg/kg): 79.23%
Relative Tumor Volume (RTV) ([4]; PANC-1 nude mice, 12.5 mg/kg): 13.87 ± 1.53
Tumor Volume (mm3) (d 1) ([4]; PANC-1 nude mice, 12.5 mg/kg): 104.64 ± 10.69 mm3
Tumor Volume (mm3) (d30) ([4]; PANC-1 nude mice, 12.5 mg/kg): 1450.36 ± 218.20 mm3
Relative Tumor Proliferation Rate (T/C) ([4]; PANC-1 nude mice, 25 mg/kg): 60.58%
Relative Tumor Volume (RTV) ([4]; PANC-1 nude mice, 25 mg/kg): 10.60 ± 1.10
Tumor Volume (mm3) (d 1) ([4]; PANC-1 nude mice, 25 mg/kg): 105.81 ± 11.20 mm3
Tumor Volume (mm3) (d30) ([4]; PANC-1 nude mice, 25 mg/kg): 1113.42 ± 71.14 mm3
Relative Tumor Proliferation Rate (T/C) ([4]; PANC-1 nude mice, 50 mg/kg): 44.45%
Relative Tumor Volume (RTV) ([4]; PANC-1 nude mice, 50 mg/kg): 7.78 ± 1.71
Tumor Volume (mm3) (d 1) ([4]; PANC-1 nude mice, 50 mg/kg): 119.69 ± 14.63 mm3
Tumor Volume (mm3) (d30) ([4]; PANC-1 nude mice, 50 mg/kg): 914.69 ± 130.26 mm3
mouse weight compared with the model group ([4]; mouse, in vivo): no significant changes
